Data from patent US20090004185A1, “AMINO-SUBSTITUTED QUINAZOLINE DERIVATIVES AS INHIBITORS OF BETA-CATENIN/TCF-4 PATHWAY AND CANCER TREATMENT AGENTS” (WYETH, priority 2007, published 2009).
Where a name gives a salt, the structure may show the parent alone.

Tests used:
[1] = system: SV40-Luc; test: SV40-Luc control luciferase reporter assay, SV 5A8 cell line (SV40-Luc and SV40-R-Luc), control for non-specific inhibitors; assay type: cell-based, human; details: SV 5A8 cells derived from SW480, 24 hours of incubation with compound, ratio Firefly/Renilla luciferase
In short: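 SW480 cells, stably integrated reporters; SV 5A8 = SV40-firefly + SV40-Renilla control line, Tcf 33.13/Tcf 22C11 = Tcf-4-firefly + SV40-Renilla. Cpd titration, 24 h, 0.316% DMSO final. Dual-Luc/Dual-Glo read; F/R ratio (% ctrl, duplicate plates) → IC50.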

[2] = system: β-catenin/Tcf-4; test: cells; assay type: cell-based; details: 24 hours of incubation with compound, ratio Firefly/Renilla luciferase
In short: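 SW480-derived lines with integrated reporters (Tcf-4-driven firefly luciferase; SV40 firefly as specificity control; SV40 Renilla for cell number/toxicity), treated 24 hours with titrated compounds, final 0.316% DMSO. Dual-luciferase read-out; firefly/Renilla ratio as % of control, duplicate plates, IC50 (nM) from curve fit.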

[3] = Homo sapiens, SW480, 24 h, Tcf 33.13 cells derived from SW480
[4] = Homo sapiens, Tcf22C11, 24 h, Tcf 22C11 cells derived from SW480
[5] = Tcf 22C11 cells derived from SW480
[6] = Tcf 33.13 cells derived from SW480

Row | Compound | melting point [°C] | IC50 ([1]; Homo sapiens, SV5A8, 24 h) [nM] | IC50 [2, 3] [nM] | IC50 [2, 4] [nM] | IC50 [1] [nM] | IC50 [2, 5] [nM] | IC50 [2, 6] [nM]
1 | Cc1ccc2c(NCc3ccc(NC(=O)c4ccc(Cl)nc4)cc3)nc(N(C)C)nc2c1 (as salt: hydrochloride) [Example 242, 6-chloro-N-[4-({[2-(dimethylamino)-7-methylquinazolin-4-yl]amino}methyl)phenyl]nicotinamide] | 325 to 329 |  |  |  |  |  | 
2 | O=C(Nc1ccc(CNc2nc(Cl)nc3cc(I)ccc23)cc1)c1ccc(Cl)nc1 [Example 109, 6-chloro-N-(4-{[(2-chloro-7-iodoquinazolin-4-yl)amino]methyl}phenyl)nicotinamide] | 315 |  |  |  |  |  | 
3 | COCCN(C)c1nc(NCc2ccc(NC(=O)c3ccc(F)cc3)cc2)c2ccc(C)cc2n1 [Example 220, 4-fluoro-N-{4-[({2-[(2-methoxyethyl)(methyl)amino]-7-methylquinazolin-4-yl}amino)methyl]phenyl}benzamide] |  | > 8510 | 682 | 1140 |  |  | 
4 | Cc1ccc2c(NCc3ccc(NC(=O)C4CCN(Cc5ccccc5)CC4)cc3)nc(N3CCN(c4ncccn4)CC3)nc2c1 [Example 136, 1-benzyl-N-[4-({[7-methyl-2-(4-pyrimidin-2-ylpiperazin-1-yl)quinazolin-4-yl]amino}methyl)phenyl]piperidine-4-carboxamide] |  | > 15900 | 365 | 494 |  |  | 
5 | O=C(Nc1ccc(CNc2nc(N3CCCC3)nc3ccccc23)cc1)c1ccc(F)cc1 [Example 119, 4-fluoro-N-(4-{[(2-pyrrolidin-1-ylquinazolin-4-yl)amino]methyl}phenyl)benzamide] |  | > 2830 | 1270 | 1740 |  |  | 
6 | Cc1ccc2nc(N3CCC3)nc(NCc3ccc(NC(=O)C4CCN(Cc5ccccc5)CC4)cc3)c2c1 [Example 84, N-(4-{[(2-azetidin-1-yl-6-methylquinazolin-4-yl)amino]methyl}phenyl)-1-benzylpiperidine-4-carboxamide] |  | > 9310 | 423 | 434 |  |  | 
7 | Cc1ccc2c(NCc3ccc(NC(=O)C4CCN(Cc5ccccc5)CC4)cc3)nc(N3CCC(N4CCCC4)CC3)nc2c1 [Example 135, 1-benzyl-N-[4-({[7-methyl-2-(4-pyrrolidin-1-ylpiperidin-1-yl)quinazolin-4-yl]amino}methyl)phenyl]piperidine-4-carboxamide] |  | > 8090 | 853 | 965 |  |  | 
8 | CCCC/C=C/c1ccc2c(NCc3ccc(NC(=O)c4ccc(F)cc4)cc3)nc(N(C)C)nc2c1 [Example 103, N-{4-[({2-(dimethylamino)-7-[(1E)-hex-1-en-1-yl]quinazolin-4-yl}amino)methyl]phenyl}-4-fluorobenzamide] |  | > 4680 | 429 | 615 |  |  | 
9 | CCN1CCN(c2nc(NCc3ccc(NC(=O)c4ccc(F)cc4)cc3)c3cc(C)ccc3n2)CC1 [Example 57, N-[4-({[2-(4-ethylpiperazin-1-yl)-6-methylquinazolin-4-yl]amino}methyl)phenyl]-4-fluorobenzamide] |  | > 10000 | 1600 | 923 |  |  | 
10 | Cc1ccc2c(NCc3ccc(NC(=O)C4CCN(Cc5ccccc5F)CC4)cc3)nc(N(C)C)nc2c1 [Example 252, N-[4-({[2-(dimethylamino)-7-methylquinazolin-4-yl]amino}methyl)phenyl]-1-(2-fluorobenzyl)piperidine-4-carboxamide] |  | > 8340 | 332 | 568 |  |  | 
11 | CN(C)c1nc(NCc2ccc(C(=O)Nc3ccc(F)cc3)cc2)c2cc(-c3ccc(/C=C/c4ccccc4)cc3)ccc2n1 [Example 173] |  |  |  |  | > 18000 | > 4510 | 4480
12 | CN(C)c1nc(NCc2ccc(NC(=O)c3ccc(F)cc3)cc2)c2ccc(-c3cccnc3Cl)cc2n1 [Example 100, N-[4-({[7-(2-chloropyridin-3-yl)-2-(dimethylamino)quinazolin-4-yl]amino}methyl)phenyl]-4-fluorobenzamide] |  | > 17700 | 541 | 548 |  |  | 
13 | Cc1ccc2nc(N3CC=CC3)nc(NCc3ccc(NC(=O)C4CCN(Cc5ccccc5)CC4)cc3)c2c1 [Example 80, 1-benzyl-N-[4-({[2-(2,5-dihydro-1H-pyrrol-1-yl)-6-methylquinazolin-4-yl]amino}methyl)phenyl]piperidine-4-carboxamide] |  | > 9390 | 597 | 761 |  |  | 
14 | Cc1ccc2c(NCc3ccc(NC(=O)c4ccc(F)cc4)cc3)nc(N3CCCCC3CCO)nc2c1 (centres unmarked) [Example 224, 4-fluoro-N-{4-[({2-[2-(2-hydroxyethyl)piperidin-1-yl]-7-methylquinazolin-4-yl}amino)methyl]phenyl}benzamide] |  | > 9740 | 781 | 1000 |  |  | 
15 | CNc1nc(NCc2ccc(NC(=O)C3CCN(Cc4ccccc4)CC3)cc2)c2cc(C)ccc2n1 [Example 149, 1-benzyl-N-[4-({[6-methyl-2-(methylamino)quinazolin-4-yl]amino}methyl)phenyl]piperidine-4-carboxamide] |  | > 2530 | 726 | 606 |  |  | 
16 | CN(C)c1nc(NCc2ccc(NC(=O)C3CCN(Cc4ccccc4)CC3)cc2)c2cc(I)ccc2n1 [Example 74, 1-benzyl-N-[4-({[2-(dimethylamino)-6-iodoquinazolin-4-yl]amino}methyl)phenyl]piperidine-4-carboxamide] |  | > 8060 | 1380 | 950 |  |  | 
17 | CNc1nc(NCc2ccc(NC(=O)c3ccc(F)cc3)cc2)c2cc(C)cc(C)c2n1 [Example 30, N-[4-({[6,8-dimethyl-2-(methylamino)quinazolin-4-yl]amino}methyl)phenyl]-4-fluorobenzamide] |  | > 5820 | 1870 | 2100 |  |  | 
18 | C=Cc1cccc(-c2ccc3nc(N(C)C)nc(NCc4ccc(C(=O)Nc5ccc(F)cc5)cc4)c3c2)c1 [Example 172] |  |  |  |  | > 2830 | 397 | 308
19 | Cc1ccc2c(NCc3ccc(NC(=O)C4CCN(Cc5ccccc5)CC4)cc3)nc(N(C)C)nc2c1 [Example 129, 1-benzyl-N-[4-({[2-(dimethylamino)-7-methylquinazolin-4-yl]amino}methyl)phenyl]piperidine-4-carboxamide] |  | > 9170 | 754 | 738 |  |  | 
20 | Cc1ccc2c(NCc3ccc(NC(=O)C4CCN(Cc5ccccc5)CC4)cc3)nc(N3CCC3)nc2c1 [Example 134, N-(4-{[(2-azetidin-1-yl-7-methylquinazolin-4-yl)amino]methyl}phenyl)-1-benzylpiperidine-4-carboxamide] |  | > 9600 | 782 | 805 |  |  | 
21 | Cc1ccc2nc(N(C)C)nc(NCc3ccc(NC(=O)Nc4ccc(Cl)cc4)cc3)c2c1 [Example 178, N-(4-chlorophenyl)-N′-[4-({[2-(dimethylamino)-6-methylquinazolin-4-yl]amino}methyl)phenyl]urea] |  | > 2710 | 245 | 266 |  |  | 
22 | N-{4-[({6,8-dimethyl-2-[(3S)-3-methylpiperazin-1-yl]quinazolin-4-yl}amino)methyl]phenyl}-4-fluorobenzamide [Example 50] |  |  |  |  | > 5010 | > 1250 | 1490
23 | CN(C)c1nc(NCc2ccc(NC(=O)c3ccc(Cl)nc3)cc2)c2ccc(I)cc2n1 [Example 110, 6-chloro-N-[4-({[2-(dimethylamino)-7-iodoquinazolin-4-yl]amino}methyl)phenyl]nicotinamide] |  | > 16800 | 1190 | 1760 |  |  | 
24 | N-[4-({[6-nitro-2-(methylamino)quinazolin-4-yl]amino}methyl)phenyl]nicotinamide [Example 188] |  |  |  |  | > 23300 | > 23300 | > 23300
25 | Cc1ccc2c(NCc3ccc(NC(=O)c4ccc(Cl)cc4)cc3)nc(NCCc3ccccn3)nc2c1 [Example 197, 4-chloro-N-{4-[({7-methyl-2-[(2-pyridin-2-ylethyl)amino]quinazolin-4-yl}amino)methyl]phenyl}benzamide] |  | > 2390 | 382 | 376 |  |  | 
26 | Cc1ccc2nc(N3CCN(C)CC3)nc(NCc3ccc(NC(=O)c4ccc(F)cc4)cc3)c2c1 [Example 48, 4-fluoro-N-[4-({[6-methyl-2-(4-methylpiperazin-1-yl)quinazolin-4-yl]amino}methyl)phenyl]benzamide] |  | > 20600 | > 20600 | > 20600 |  |  | 
27 | Cc1ccc2c(NCc3ccc(NC(=O)c4ccc(F)cc4)cc3)nc(NCCCN3CCN(C)CC3)nc2c1 [Example 229, 4-fluoro-N-(4-{[(7-methyl-2-{[3-(4-methylpiperazin-1-yl)propyl]amino}quinazolin-4-yl)amino]methyl}phenyl)benzamide] |  | > 4620 | 2320 | 2190 |  |  | 
28 | C=Cc1ccc2nc(N(C)C)nc(NCc3ccc(NC(=O)c4ccc(Cl)nc4)cc3)c2c1 [Example 73, 6-chloro-N-[4-({[2-(dimethylamino)-6-vinylquinazolin-4-yl]amino}methyl)phenyl]nicotinamide] |  | > 681 | 194 | 223 |  |  | 
29 | CN(C)c1nc(NCc2ccc(C(=O)Nc3ccc(F)cc3)cc2)c2cc(/C=C/C(C)(C)C)ccc2n1 [Example 176] |  |  |  |  | > 4680 | 556 | 425
